In US20210045385A1, “PYRIDAZINONE-SUBSTITUTED KETOXIMES AS HERBICIDES” (FMC Corporation, priority 2018, published 2021):

Assays:
Format in all cases: in vivo
rice (Oryza sativa) = assay: Test B flooded paddy test, visual plant response rating; conditions: 250 g ai/ha, Flood, applied to paddy water, 2-leaf stage, evaluated after 13 to 15 days
Description: (§1) Plant species in the flooded paddy test selected from rice (Oryza sativa), sedge, umbrella (small-flower umbrella sedge, Cyperus difformis), ducksalad (Heteranhera limosa), and barnyardgrass (Echinochloa crus-galli) were grown to the 2-leaf stage for testing. At time of treatment, test pots were flooded to 3 cm above the soil surface treated by application of test compounds directly to the paddy water, and then maintained at that water depth for the duration of the test. Treated plants and controls were maintained in a greenhouse for 13 to 15 days, after which time all species were compared to controls and visually evaluated. […] A dash (-) response means no test result.

[1] = system: ducksalad (Heteranhera limosa); assay: as above; conditions: 250 g ai/ha, Flood, applied to paddy water, 2-leaf stage, evaluated after 13 to 15 days
Description: as §1

[2] = system: barnyardgrass (Echinochloa crus-galli); assay: as above; conditions: 250 g ai/ha, Flood, applied to paddy water, 2-leaf stage, evaluated after 13 to 15 days
Description: as §1

[3] = system: sedge, umbrella (small-flower umbrella sedge, Cyperus difformis); assay: as above; conditions: 250 g ai/ha, Flood, applied to paddy water, 2-leaf stage, evaluated after 13 to 15 days
Description: as §1

[4] = system: foxtail, giant (giant foxtail, Setaria faberii); assay: Test A preemergence, visual plant response rating; conditions: for Foxtail, Giant plant response rating: preemergence, 0 to 100 scale, 0 no effect, 100 complete control; for Foxtail, Giant plant response rating (0 to 100 scale): 500 g ai/ha Preemergence, approx. 10 days
Source text: (§2) Seeds of plant species selected from barnyardgrass (Echinochloa crus-galli), kochia (Kochia scoparia), ragweed (common ragweed, Ambrosia elatior), Italian ryegrass (Lolium multiflorum), foxtail, giant (giant foxtail, Setaria faberii), foxtail, green (green foxtail, Setaria viridis), and pigweed (Amaranthus retroflexus) were planted into a blend of loam soil and sand and treated preemergence with a directed soil spray using test chemicals formulated in a non-phytotoxic solvent mixture which included a surfactant.
(§3) At the same time, plants selected from these weed species and also wheat (Triticum aestivum), corn (Zea mays), blackgrass (Alopecurus myosuroides), and galium (catchweed bedstraw, Galium aparine) were planted in pots containing the same blend of loam soil and sand and treated with postemergence applications of test chemicals formulated in the same manner. Plants ranged in height from 2 to 10 cm and were in the one- to two-leaf stage for the postemergence treatment. Treated plants and untreated controls were maintained in a greenhouse for approximately 10 days, after which time all treated plants were compared to untreated controls and visually evaluated for injury. Plant response ratings, summarized in Table A, are based on a 0 to 100 scale where 0 is no effect and 100 is complete control. A dash (-) response means no test result.

[5] = system: Italian ryegrass (Lolium multiflorum); assay: Test A preemergence, visual plant response rating; conditions: for Ryegrass, Italian plant response rating: preemergence, 0 to 100 scale, 0 no effect, 100 complete control; for Ryegrass, Italian plant response rating (0 to 100 scale): 500 g ai/ha Preemergence, approx. 10 days
Source text: as §2, §3

kochia (Kochia scoparia) [6] = assay: Test A preemergence, visual plant response rating; conditions: for Kochia plant response rating: preemergence, 0 to 100 scale, 0 no effect, 100 complete control; for Kochia plant response rating (0 to 100 scale): 500 g ai/ha Preemergence, approx. 10 days
Source text: as §2, §3

[7] = system: pigweed (Amaranthus retroflexus); assay: Test A preemergence, visual plant response rating; conditions: for Pigweed plant response rating: preemergence, 0 to 100 scale, 0 no effect, 100 complete control; for Pigweed plant response rating (0 to 100 scale): 500 g ai/ha Preemergence, approx. 10 days
Source text: as §2, §3

[8] = system: barnyardgrass (Echinochloa crus-galli); assay: Test A preemergence, visual plant response rating; conditions: for Barnyardgrass plant response rating: preemergence, 0 to 100 scale, 0 no effect, 100 complete control; for Barnyardgrass plant response rating (0 to 100 scale): 500 g ai/ha Preemergence, approx. 10 days
Source text: as §2, §3

[9] = system: ragweed (common ragweed, Ambrosia elatior); assay: Test A preemergence, visual plant response rating; conditions: for Ragweed plant response rating: preemergence, 0 to 100 scale, 0 no effect, 100 complete control; for Ragweed plant response rating (0 to 100 scale): 500 g ai/ha Preemergence, approx. 10 days
Source text: as §2, §3

[10] = system: foxtail, giant (giant foxtail, Setaria faberii); assay: Test A postemergence, visual plant response rating; conditions: for Foxtail, Giant plant response rating: Postemergence, 125 g ai/ha, 0 to 100 scale (0 no effect, 100 complete control)
Source text: as §2, §3

[11] = system: galium (catchweed bedstraw, Galium aparine); assay: Test A postemergence, visual plant response rating; conditions: for Galium plant response rating: Postemergence, 125 g ai/ha, 0 to 100 scale (0 no effect, 100 complete control)
Source text: as §2, §3

[12] = system: wheat (Triticum aestivum); assay: Test A postemergence, visual plant response rating; conditions: for Wheat plant response rating: Postemergence, 125 g ai/ha, 0 to 100 scale (0 no effect, 100 complete control)
Source text: as §2, §3

[13] = system: blackgrass (Alopecurus myosuroides); assay: Test A postemergence, visual plant response rating; conditions: for Blackgrass plant response rating: Postemergence, 125 g ai/ha, 0 to 100 scale (0 no effect, 100 complete control)
Source text: as §2, §3

corn (Zea mays) = assay: Test A postemergence, visual plant response rating; conditions: for Corn plant response rating: Postemergence, 125 g ai/ha, 0 to 100 scale (0 no effect, 100 complete control)
Source text: as §2, §3

[14] = system: Italian ryegrass (Lolium multiflorum); assay: Test A postemergence, visual plant response rating; conditions: for Ryegrass, Italian plant response rating: Postemergence, 125 g ai/ha, 0 to 100 scale (0 no effect, 100 complete control)
Source text: as §2, §3

kochia (Kochia scoparia) [15] = assay: Test A postemergence, visual plant response rating; conditions: for Kochia plant response rating: Postemergence, 125 g ai/ha, 0 to 100 scale (0 no effect, 100 complete control)
Source text: as §2, §3

[16] = system: pigweed (Amaranthus retroflexus); assay: Test A postemergence, visual plant response rating; conditions: for Pigweed plant response rating: Postemergence, 125 g ai/ha, 0 to 100 scale (0 no effect, 100 complete control)
Source text: as §2, §3

[17] = system: barnyardgrass (Echinochloa crus-galli); assay: Test A postemergence, visual plant response rating; conditions: for Barnyardgrass plant response rating: Postemergence, 125 g ai/ha, 0 to 100 scale (0 no effect, 100 complete control)
Source text: as §2, §3

[18] = system: ragweed (common ragweed, Ambrosia elatior); assay: Test A postemergence, visual plant response rating; conditions: for Ragweed plant response rating: Postemergence, 125 g ai/ha, 0 to 100 scale (0 no effect, 100 complete control)
Source text: as §2, §3

[19] = 1000 g ai/ha Postemergence, approx. 10 days
[20] = 500 g ai/ha, postemergence, 0 is no effect, 100 is complete control

Row | SMILES | Plant response rating, Rice (0 to 100 scale, 0 is no effect, 100 is complete control) (rice (Oryza sativa)) | Plant response rating, Ducksalad (0 to 100 scale, 0 is no effect, 100 is complete control) [1] | Plant response rating, Barnyardgrass (0 to 100 scale, 0 is no effect, 100 is complete control) [2] | Plant response rating, Sedge, Umbrella (0 to 100 scale, 0 is no effect, 100 is complete control) [3] | Foxtail, Giant plant response rating ([4]; 125 g ai/ha) | Foxtail, Giant plant response rating (0 to 100 scale) [4] | Ryegrass, Italian plant response rating ([5]; 125 g ai/ha) | Ryegrass, Italian plant response rating (0 to 100 scale) [5] | Kochia plant response rating (kochia (Kochia scoparia) [6]; 125 g ai/ha) | Kochia plant response rating (0 to 100 scale) (kochia (Kochia scoparia) [6]) | Pigweed plant response rating ([7]; 125 g ai/ha) | Pigweed plant response rating (0 to 100 scale) [7] | Barnyardgrass plant response rating ([8]; 125 g ai/ha) | Barnyardgrass plant response rating (0 to 100 scale) [8] | Foxtail, Giant plant response rating (0 to 100 scale) [10, 20] | Foxtail, Giant plant response rating [10] | Galium plant response rating (0 to 100 scale) [11, 20] | Galium plant response rating [11] | Wheat plant response rating (0 to 100 scale) [12, 20] | Wheat plant response rating [12] | also measured
1 | Cc1cccc(/C(=N/OC(C)C)c2c(O)c(C)nn(C)c2=O)c1 [Compound 18] | 0 | 0 | 0 | 0 |  |  |  |  |  |  |  |  |  |  |  |  |  |  |  |  | Foxtail, Giant plant response rating ([4]; 1000 g ai/ha): 20; Ryegrass, Italian plant response rating ([5]; 1000 g ai/ha): 60; Kochia plant response rating (kochia (Kochia scoparia) [6]; 1000 g ai/ha): 50; Pigweed plant response rating ([7]; 1000 g ai/ha): 100; Barnyardgrass plant response rating ([8]; 1000 g ai/ha): 30; Ragweed plant response rating ([9]; 1000 g ai/ha): 80; Foxtail, Giant plant response rating (0 to 100 scale) [10, 19]: 40; Galium plant response rating (0 to 100 scale) [11, 19]: 90; Wheat plant response rating (0 to 100 scale) [12, 19]: 20; Blackgrass plant response rating (0 to 100 scale) [13, 19]: 10; Corn plant response rating (0 to 100 scale) (corn (Zea mays); [19]): 0; Ryegrass, Italian plant response rating (0 to 100 scale) [14, 19]: 60; Kochia plant response rating (0 to 100 scale) (kochia (Kochia scoparia) [15]; [19]): 30; Pigweed plant response rating (0 to 100 scale) [16, 19]: 90; Barnyardgrass plant response rating (0 to 100 scale) [17, 19]: 10; Ragweed plant response rating (0 to 100 scale) [18, 19]: 100
2 | CCc1ccccc1/C(=N\OC)c1c(O)c(C)nn(C)c1=O [Compound 69] | 0 | 0 | 0 | 0 | 10 | 30 | 10 | 80 | 0 | 10 | 10 | 70 | 0 | 10 | 40 | 10 | 80 | 70 | 0 | 0 | Ragweed plant response rating ([9]; 125 g ai/ha): 10; Ragweed plant response rating (0 to 100 scale) [9]: 40; Blackgrass plant response rating (0 to 100 scale) [13, 20]: 60; Blackgrass plant response rating [13]: 10; Corn plant response rating (0 to 100 scale) (corn (Zea mays); [20]): 20; Corn plant response rating (corn (Zea mays)): 0; Ryegrass, Italian plant response rating (0 to 100 scale) [14, 20]: 80; Ryegrass, Italian plant response rating [14]: 80; Kochia plant response rating (0 to 100 scale) (kochia (Kochia scoparia) [15]; [20]): 70; Kochia plant response rating (kochia (Kochia scoparia) [15]): 50; Pigweed plant response rating (0 to 100 scale) [16, 20]: 70; Pigweed plant response rating [16]: 40; Barnyardgrass plant response rating (0 to 100 scale) [17, 20]: 30; Barnyardgrass plant response rating [17]: 20; Ragweed plant response rating (0 to 100 scale) [18, 20]: 70; Ragweed plant response rating [18]: 70
3 | C=CCc1ccccc1C(=NOC)c1c(O)c(C)nn(C)c1=O [Compound 121] | 0 | 0 | 0 | 0 | 10 | 80 | 50 | 100 | 0 | 30 | 10 | 90 | 0 | 20 | 60 | 20 | 90 | 60 | 40 | 30 | Ragweed plant response rating ([9]; 125 g ai/ha): 10; Ragweed plant response rating (0 to 100 scale) [9]: 50; Blackgrass plant response rating (0 to 100 scale) [13, 20]: 70; Blackgrass plant response rating [13]: 30; Corn plant response rating (0 to 100 scale) (corn (Zea mays); [20]): 10; Corn plant response rating (corn (Zea mays)): 0; Ryegrass, Italian plant response rating (0 to 100 scale) [14, 20]: 90; Ryegrass, Italian plant response rating [14]: 60; Kochia plant response rating (0 to 100 scale) (kochia (Kochia scoparia) [15]; [20]): 60; Kochia plant response rating (kochia (Kochia scoparia) [15]): 40; Pigweed plant response rating (0 to 100 scale) [16, 20]: 70; Pigweed plant response rating [16]: 50; Barnyardgrass plant response rating (0 to 100 scale) [17, 20]: 70; Barnyardgrass plant response rating [17]: 0; Ragweed plant response rating (0 to 100 scale) [18, 20]: 70; Ragweed plant response rating [18]: 40
4 | CON=C(c1cc(Cl)ccc1Cl)c1c(O)c(C)nn(C)c1=O [Compound 98] | 0 | 0 | 0 | 0 | 60 | 70 | 80 | 90 | 60 | 60 | 90 | 100 | 50 | 60 | 80 | 40 | 100 | 80 | 20 | 0 | Blackgrass plant response rating (0 to 100 scale) [13, 20]: 90; Blackgrass plant response rating [13]: 80; Corn plant response rating (0 to 100 scale) (corn (Zea mays); [20]): 20; Corn plant response rating (corn (Zea mays)): 0; Ryegrass, Italian plant response rating (0 to 100 scale) [14, 20]: 80; Ryegrass, Italian plant response rating [14]: 80; Kochia plant response rating (0 to 100 scale) (kochia (Kochia scoparia) [15]; [20]): 80; Kochia plant response rating (kochia (Kochia scoparia) [15]): 60; Pigweed plant response rating (0 to 100 scale) [16, 20]: 80; Pigweed plant response rating [16]: 70; Barnyardgrass plant response rating (0 to 100 scale) [17, 20]: 80; Barnyardgrass plant response rating [17]: 50; Ragweed plant response rating (0 to 100 scale) [18, 20]: 90; Ragweed plant response rating [18]: 80
